Values after ≈ are worked out from the molar mass of the structure shown. Values joined by “and” are separate entries in the source; they are usually repeats but may differ in a detail not shown here. Equal entries are not always repeated. Where two headings read alike, the source gives them in different places.
Columns and labels:
[1] = test system: DLD1-BRCA2−/− cells; assay: Cell proliferation assay in DLD1-BRCA2−/− cell lines (CellTiter-Glo, 7 days); assay type: cell-based
Method in brief: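 Cells in RPMI 1640 + 10% FBS seeded overnight, then exposed to compound or vehicle for 7 days at 37 °C, 5% CO2. Viability read on day 8 by CellTiter-Glo luminescence; % inhibition fitted to a four-parameter logistic curve for IC50.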

[2] = biological target: Recombinant full length PARP1 (Homo sapiens (Human), UniProt P09874); assay: FP assay PARP1 (fluorescence anisotropy probe displacement); assay type: binding; details: 20 nM PARP1, 8 nM fluorescent probe, 4 h, room temperature
Method: (§1) FP experiments were carried out at room temperature using no-binding black 384-well microplates. Recombinant full length PARP1 and PARP2 proteins produced in house were diluted to 20 nM and 60 nM, respectively, with assay buffer (50 mM Tris pH 8, 0.001% Triton X100, 10 mM MgCl2, and 150 mM NaCl) and incubated for 4 h with an equivalent volume of the 8 nM fluorescent probe diluted with assay buffer. Fluorescence anisotropy of the probe when bound to the proteins was measured in the presence of test compounds or solvent control and the effect on anisotropy determined. Polarization values were read using an Envision plate reader using excitation and emission wavelengths of 590 and 630 nm, respectively. All FP values are expressed as mP units. Inhibition ratio was calculated using readout (mP) following the equation as below: […]
(§2) % inhibition values for different test compound concentrations were calculated and fitted to a four parameter logistic plot in order to determine the IC50 value using XLfit.

[3] = test system: Caco-2 cell monolayers; assay: Caco2 (A-B/B-A) permeability; assay type: in vitro ADME; details: for Caco2 efflux ratio (ER): PappB-A/PappA-B; for Caco2 A-B apparent permeability (Papp): apical-to-basolateral; for Caco2 A-B apparent permeability (Papp) / Caco2 B-A apparent permeability (Papp): 5 μM, HBSS pH 7.4, 120 min, 37° C.; for Caco2 B-A apparent permeability (Papp): basolateral-to-apical
Method in brief: (§3)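 Bidirectional A-B and B-A transport of 5 μM compound across Caco-2 monolayers in HBSS (10 mM HEPES, pH 7.4), duplicate, ~37° C for 120 min. Donor and receiver levels measured by UPLC-MS/MS give Papp. Efflux ratio = PappB-A/PappA-B, with monolayer integrity checked by Lucifer yellow.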

[4] = biological target: Recombinant full length PARP2 (Homo sapiens (Human), UniProt Q9UGN5); assay: FP assay PARP2 (fluorescence anisotropy probe displacement); assay type: binding; details: 60 nM PARP2, 8 nM fluorescent probe, 4 h, room temperature
Method: as §1, §2

[5] = Thermodynamic solubility, FaSSiF; assay type: physicochemical; details: for solubility thermodynamic at 24 h: FaSSIF, 25 °C, thermodynamic from solid
Method: All incubations were performed in duplicate. Test compound or the control compound diclofenac sodium (1.0 mg) were placed into 1.5 mL glass vials. FaSSIF (1000 μL) was added into the vials. The samples were transferred to Eppendorf Thermomixer Comfort plate shaker and shaken at 25° C., 1100 rpm for 24 hours. The samples were then filtered. The filtrate was diluted by 1000-fold with water:acetonitrile 1:1 (v/v) for analysis by UPLC MS/MS to determine the concentration of test compound. The solubility value was calculated by quantification against a standard of known concentration.

[6] = Caco2 (A-B/B-A) permeability; assay type: in vitro ADME; details: human; for efflux ratio at 120 min, 5 μM: Caco-2, pH 7.4, PappB-A/PappA-B, read-out: Caco2 efflux ratio (ER); for Papp A→B at 120 min, 5 μM: Caco-2, pH 7.4, apical-to-basolateral, read-out: Caco2 A-B apparent permeability (Papp); for Papp A→B at 120 min, 5 μM / Papp B→A at 120 min, 5 μM: HBSS pH 7.4, 120 min, 37° C.; for Papp B→A at 120 min, 5 μM: Caco-2, pH 7.4, basolateral-to-apical, read-out: Caco2 B-A apparent permeability (Papp)
Method in brief: as §3

[7] = Kinetic solubility, PBS, pH7.4; assay type: physicochemical; details: 300 μM test compound
Method: After incubation, the samples were filtered, and the filtrate was diluted by 1000-fold with water:acetonitrile 1:1 (v/v) for analysis by UPLC MS/MS to determine the concentration of test compound. The solubility value was calculated by quantification against a standard of known concentration.

[8] = PBS pH 7.4, 25 °C, pH 7.4, aqueous buffer, kinetic from dmso stock

Chain of Recombinant full length PARP1 (P09874 whole entry): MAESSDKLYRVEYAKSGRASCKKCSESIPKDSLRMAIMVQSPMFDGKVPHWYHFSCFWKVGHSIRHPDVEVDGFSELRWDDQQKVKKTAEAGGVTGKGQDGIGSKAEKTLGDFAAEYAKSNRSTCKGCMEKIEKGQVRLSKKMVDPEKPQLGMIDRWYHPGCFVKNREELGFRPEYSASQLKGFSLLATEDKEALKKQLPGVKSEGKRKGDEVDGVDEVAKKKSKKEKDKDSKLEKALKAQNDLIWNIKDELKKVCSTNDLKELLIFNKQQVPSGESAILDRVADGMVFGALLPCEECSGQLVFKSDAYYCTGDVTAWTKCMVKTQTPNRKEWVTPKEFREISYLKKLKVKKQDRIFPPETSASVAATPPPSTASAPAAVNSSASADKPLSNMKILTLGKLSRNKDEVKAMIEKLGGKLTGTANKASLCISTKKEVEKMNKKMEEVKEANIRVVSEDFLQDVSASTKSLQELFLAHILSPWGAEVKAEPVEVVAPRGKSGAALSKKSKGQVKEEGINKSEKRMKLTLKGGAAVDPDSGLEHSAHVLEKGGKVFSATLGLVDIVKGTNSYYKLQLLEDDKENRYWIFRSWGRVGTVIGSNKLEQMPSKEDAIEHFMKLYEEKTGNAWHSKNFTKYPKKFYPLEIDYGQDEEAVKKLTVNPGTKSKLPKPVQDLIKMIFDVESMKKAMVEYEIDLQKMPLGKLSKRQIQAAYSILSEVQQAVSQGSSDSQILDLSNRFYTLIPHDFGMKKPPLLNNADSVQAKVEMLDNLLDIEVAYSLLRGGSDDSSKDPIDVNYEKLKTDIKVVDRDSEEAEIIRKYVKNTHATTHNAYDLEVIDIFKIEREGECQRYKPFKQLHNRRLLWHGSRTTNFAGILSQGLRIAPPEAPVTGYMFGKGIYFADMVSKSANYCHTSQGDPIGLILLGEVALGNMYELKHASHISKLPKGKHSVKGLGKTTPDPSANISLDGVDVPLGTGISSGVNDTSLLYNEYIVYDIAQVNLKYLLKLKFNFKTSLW
Chain of Recombinant full length PARP2 (Q9UGN5 whole entry): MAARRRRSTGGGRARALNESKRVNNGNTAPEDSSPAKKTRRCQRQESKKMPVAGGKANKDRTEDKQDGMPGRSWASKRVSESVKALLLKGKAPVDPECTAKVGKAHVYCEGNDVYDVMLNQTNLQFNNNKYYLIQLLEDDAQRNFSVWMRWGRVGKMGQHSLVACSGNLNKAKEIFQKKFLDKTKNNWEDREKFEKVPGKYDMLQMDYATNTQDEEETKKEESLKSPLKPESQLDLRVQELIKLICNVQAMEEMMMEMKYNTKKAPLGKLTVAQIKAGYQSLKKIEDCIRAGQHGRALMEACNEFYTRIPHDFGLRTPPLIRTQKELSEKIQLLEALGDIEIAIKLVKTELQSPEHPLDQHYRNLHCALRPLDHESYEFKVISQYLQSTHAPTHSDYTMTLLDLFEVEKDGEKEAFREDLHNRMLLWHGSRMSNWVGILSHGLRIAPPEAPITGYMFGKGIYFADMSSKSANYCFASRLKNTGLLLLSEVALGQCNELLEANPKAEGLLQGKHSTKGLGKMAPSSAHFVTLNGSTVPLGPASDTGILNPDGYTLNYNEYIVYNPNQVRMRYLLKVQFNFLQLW

IC50 [1]	IC50 [2]	Caco2 efflux ratio (ER) [3]	Caco2 A-B apparent permeability (Papp) [3]	Caco2 B-A apparent permeability (Papp) [3]	IC50 [4]	IC50 ([1]; Homo sapiens, DLD-1, 168 h)	Thermodynamic Solubility, FaSSiF ([5]; 25° C., 24 hours)	solubility thermodynamic at 24 h [5]	efflux ratio at 120 min, 5 μM [6]	Papp A→B at 120 min, 5 μM [6]	Papp B→A at 120 min, 5 μM [6]	solubility kinetic at 2 h ([7]; 25° C., read-out: Kinetic solubility, PBS, pH 7.4)	solubility kinetic at 2 h [7, 8]	Structure (SMILES)
6.6 nM	4.3 nM	(ER = 8.07)	5.51 10*−6 cm/s	44.49 10*−6 cm/s	2580 nM	–	–	–	–	–	–	–	–	CCc1cc2ncc([C@@H](C)N3CC(Oc4ccc(C(=O)NC)nc4F)C3)cc2[nH]c1=O (single isomer, unassigned; enantiomer 2) [Compound 46, (enantiomer 2)-5-((1-(1-(7-ethyl-6-oxo-5,6-dihydro-1,5-naphthyridin-3-yl)ethyl)azetidin-3-yl)oxy)-6-fluoro-N-methylpicolinamide]
–	5.2 nM	–	–	–	3120 nM	6.9 nM	145.89 µg/mL and 126.09 µg/mL	107 µg/mL (≈ 262 µM)	9.78	3.39 ×10⁻⁶ cm/s	33.2 ×10⁻⁶ cm/s	281.58 µM (≈ 115 µg/mL)	250 µM (≈ 102 µg/mL)	CCc1cc2ncc([C@H](C)N3CC(Oc4ccc(C(=O)NC)nc4)C3)cc2[nH]c1=O [Compound 5, (S)-5-((1-(1-(7-ethyl-6-oxo-5,6-dihydro-1,5-naphthyridin-3-yl)ethyl)azetidin-3-yl)oxy)-N-methylpicolinamide]
21.9 nM	5.1 nM	(ER = 2.51)	8.96 10*−6 cm/s	22.47 10*−6 cm/s	> 10000 nM	–	–	–	–	–	–	–	–	CCc1cc2cnc([C@@H](C)N3CC(Oc4ccc(C(=O)NC)nc4)C3)cc2[nH]c1=O (single isomer, unassigned) [Compound 48, (enantiomer 1 or 2)-5-((1-(1-(3-ethyl-2-oxo-1,2-dihydro-1,6-naphthyridin-7-yl)ethyl)azetidin-3-yl)oxy)-N-methylpicolinamide]
9.1 nM	7.3 nM	(ER = 2.38)	12.25 10*−6 cm/s	29.21 10*−6 cm/s	–	–	–	–	–	–	–	–	–	CCc1nc2ccc([C@H](C)N3CC(Oc4ccc(C(=O)NC)nc4F)C3)cc2[nH]c1=O (single isomer, unassigned) [Compound 57, (enantiomer 1 or 2)-5-((1-(1-(2-ethyl-3-oxo-3,4-dihydroquinoxalin-6-yl)ethyl)azetidin-3-yl)oxy)-6-fluoro-N-methylpicolinamide]
–	5.8 nM	(ER = 7.38)	–	–	> 10000 nM	26.8 nM	–	–	–	4.82 ×10⁻⁶ cm/s	35.6 ×10⁻⁶ cm/s	–	–	CCc1cc2cnc([C@@H](C)N3CC(Oc4ccc(C(=O)NC)nc4)C3)cc2[nH]c1=O (single isomer, unassigned) [Compound 47, (enantiomer 1 or 2)-5-((1-(1-(3-ethyl-2-oxo-1,2-dihydro-1,6-naphthyridin-7-yl)ethyl)azetidin-3-yl)oxy)-N-methylpicolinamide]
7.2 nM	18.1 nM	(ER = 8.36)	3.84 10*−6 cm/s	32.1 10*−6 cm/s	> 10000 nM	–	–	–	–	–	–	–	–	CCc1cc2cnc([C@H](C)N3CC(Oc4ccc(C(=O)NC)nc4F)C3)cc2[nH]c1=O (single isomer, unassigned; enantiomer 2) [Compound 50, (enantiomer 2)-5-((1-(1-(3-ethyl-2-oxo-1,2-dihydro-1,6-naphthyridin-7-yl)ethyl)azetidin-3-yl)oxy)-6-fluoro-N-methylpicolinamide]
–	10.3 nM	–	–	–	> 10000 nM	216 nM	–	115 µg/mL (≈ 283 µM)	7.49	4.77 ×10⁻⁶ cm/s	35.7 ×10⁻⁶ cm/s	–	223 µM (≈ 90.9 µg/mL)	CCc1cc2ncc([C@@H](C)N3CC(Oc4ccc(C(=O)NC)nc4)C3)cc2[nH]c1=O [Compound 4, (R)-5-((1-(1-(7-ethyl-6-oxo-5,6-dihydro-1,5-naphthyridin-3-yl)ethyl)azetidin-3-yl)oxy)-N-methylpicolinamide]
29.5 nM	–	(ER = 7.91)	3.85 10*−6 cm/s	30.43 10*−6 cm/s	–	–	–	–	–	–	–	–	–	CCc1cc2ncc([C@H](C)N3CC[C@@H](Oc4ccc(C(=O)NC)nc4)C3)cc2[nH]c1=O (single isomer, unassigned) [Compound 13, 5-(((R)-1-((enantiomer 1 or 2)-1-(7-ethyl-6-oxo-5,6-dihydro-1,5-naphthyridin-3-yl)ethyl)pyrrolidin-3-yl)oxy)-N-methylpicolinamide]
–	7.03 nM	–	–	–	> 10000 nM	5.4 nM	–	–	7.96	5.35 ×10⁻⁶ cm/s	42.5 ×10⁻⁶ cm/s	–	–	CCc1cc2cnc(CN3CC[C@@H](Oc4ccc(C(=O)NC)nc4)C3)cc2[nH]c1=O [Compound 63, (R)-5-((1-((3-ethyl-2-oxo-1,2-dihydro-1,6-naphthyridin-7-yl)methyl)pyrrolidin-3-yl)oxy)-N-methylpicolinamide]
–	4.8 nM	–	–	–	–	4.5 nM	–	1.77 µg/mL (≈ 4.5 µM)	–	3.86 ×10⁻⁶ cm/s	22.7 ×10⁻⁶ cm/s	–	29.4 µM (≈ 11.6 µg/mL)	CCc1cc2ncc(CN3CC(Oc4ccc(C(=O)NC)nc4)C3)cc2[nH]c1=O [Compound 1, 5-((1-((7-ethyl-6-oxo-5,6-dihydro-1,5-naphthyridin-3-yl)methyl)azetidin-3-yl)oxy)-N-methylpicolinamide]
12.1 nM	24.2 nM	(ER = 2.51)	13.2 10*−6 cm/s	33.19 10*−6 cm/s	> 10000 nM	–	–	–	–	–	–	–	–	CCc1nc2ccc([C@H](C)N3CC(Oc4ccc(C(=O)NC)nc4)C3)cc2[nH]c1=O (single isomer, unassigned) [Compound 53, (enantiomer 1 or 2)-5-((1-(1-(2-ethyl-3-oxo-3,4-dihydroquinoxalin-6-yl)ethyl)azetidin-3-yl)oxy)-N-methylpicolinamide]
–	14.5 nM	–	–	–	> 10000 nM	5.7 nM	–	–	8.64	3.46 ×10⁻⁶ cm/s	29.9 ×10⁻⁶ cm/s	–	–	CCc1cc2cnc([C@H](C)N3CC(Oc4ccc(C(=O)NC)nc4F)C3)cc2[nH]c1=O (single isomer, unassigned; enantiomer 1) [Compound 49, (enantiomer 1)-5-((1-(1-(3-ethyl-2-oxo-1,2-dihydro-1,6-naphthyridin-7-yl)ethyl)azetidin-3-yl)oxy)-6-fluoro-N-methylpicolinamide]
